These are literature values, as cited in US6491657B2, “Ultrasound enhancement of transdermal transport” (Sontra Medical, Inc., priority 1996, dated 2002).

For the data set the following is noted: with ethanol as chemical enhancer.

In the case of `C[C@]12CC[C@@H]3c4ccc(O)cc4CC[C@H]3[C@@H]1CC[C@@H]2O` [estradiol], the flux increase was 140 fold.
